The target in the experiment is MMP13 (Homo sapiens, UniProt P45452). Put plainly: EnzoLyte 520 Generic MMP Assay Kit (FRET peptide substrate), MMP-13 inhibition. The class given is biochemical. An excerpt: The EnzoLyte™ 520 Generic MMP Assay Kit (AnaSpec Inc.) can detect the activity of several MMPs including MMP-1, 2, 3, 7, 8, 9, 13, and 14. This kit uses a 5-FAM/QXL™ 520 fluorescence resonance energy transfer (FRET) peptide as an MMP substrate. In the intact FRET peptide, the fluorescence of 5-FAM is quenched by QXL™ 520. Upon cleavage into two separate fragments by MMPs, the fluorescence of 5-FAM is recovered, and can be monitored at excitation/emission wavelengths=490 nm/520 nm. The assays are performed in a convenient 96-well or 384-well microplate format.
`CNC(=O)[C@@H](NC(=O)c1ccc(-c2ccc3nc[nH]c3c2)o1)C1CCCCC1` [5-(3H-Benzimidazol-5-yl)-furan-2-carboxylic acid ((S)-cyclohexyl-methylcarbamoyl-methyl)-amide]: the IC50 (as a rule, the concentration that gives 50% inhibition) amounted to 270 nM.

In turn, `CNC(=O)[C@@H](NC(=O)c1ccc(-c2ccc3cc[nH]c3c2)o1)C1CCCCC1` [5-(1H-Indol-6-yl)-furan-2-carboxylic acid ((S)-cyclohexyl-methylcarbamoyl-methyl)-amide] displayed an IC50 of 290 nM.

In turn, `CNC(=O)[C@@H](NC(=O)c1ccc(-c2ccc3cc(C(=O)N4CCN(C)CC4)[nH]c3c2)o1)C(C)C` [5-[2-(4-Methyl-piperazine-1-carbonyl)-1H-indol-6-yl]-furan-2-carboxylic acid ((S)-2-methyl-1-methylcarbamoyl-propyl)-amide] registered an IC50 of 300 nM.

In turn, `CNC(=O)[C@@H](NC(=O)c1ccc(-c2ccc3cc(C(=O)N4CCOCC4)[nH]c3c2)o1)C(C)C` [5-[2-(Morpholine-4-carbonyl)-1H-indol-6-yl]-furan-2-carboxylic acid ((S)-2-methyl-1-methylcarbamoyl-propyl)-amide] displayed an IC50 of 415 nM.

Regarding `CNC(=O)[C@@H](NC(=O)c1ccc(-c2ccc3cc(C(=O)N4CC(C)OC(C)C4)[nH]c3c2)o1)C(C)C` (stereo partly drawn) [5-[2-(2,6-Dimethyl-morpholine-4-carbonyl)-1H-indol-6-yl]-furan-2-carboxylic acid ((S)-2-methyl-1-methylcarbamoyl-propyl)-amide], the IC50 was 65 nM.

Turning to `CNC(=O)[C@@H](NC(=O)c1ccc(-c2ccc3cc(C(=O)N4CCS(=O)(=O)CC4)[nH]c3c2)o1)C(C)C` [5-[2-(1,1-Dioxo-λ^6-1-thiomorpholine-4-carbonyl)-1H-indol-6-yl]-furan-2-carboxylic acid ((S)-2-methyl-1-methylcarbamoyl-propyl)-amide], inhibition was half-maximal at 200 nM (IC50).

As for `CNC(=O)[C@@H](NC(=O)c1ccc(-c2ccc3cc(C(=O)N4CCOCC4)[nH]c3c2)o1)C1CCCCC1` [5-[2-(Morpholine-4-carbonyl)-1H-indol-6-yl]-furan-2-carboxylic acid ((S)-cyclohexyl-methylcarbamoyl-methyl)-amide], half-maximal inhibition (IC50) required 340 nM.

`CNC(=O)[C@@H](NC(=O)c1ccc(-c2cc3[nH]ccc3cn2)o1)C1CCCCC1` [5-(1H-Pyrrolo[3,2-c]pyridin-6-yl)-furan-2-carboxylic acid ((S)-cyclohexyl-methylcarbamoyl-methyl)-amide] returned a 50% inhibitory concentration (IC50) of 103 nM.

On to `CNC(=O)[C@@H](NC(=O)c1ccc(-c2ccc3nc(Cc4ccncc4)[nH]c3c2)o1)C1CCCCC1` [5-(2-Pyridin-4-ylmethyl-3H-benzimidazol-5-yl)-furan-2-carboxylic acid ((S)-cyclohexyl-methylcarbamoyl-methyl)-amide], for which the IC50 came out at 34 nM.
